The assay in a line: Inhibition of calcium stimulated Mycobacterium tuberculosis H37Ra CtpF mutant ATPase activity using Na2ATP as substrate preincubated for 30 mins followed by substrate addition and measured after 30 mins by colorimetric analysis.

One may read the IC50 as the midpoint of a concentration-inhibition curve.

On to `C[C@@H](OC(=O)CCCNC1=NS(=O)(=O)c2ccccc21)C(=O)c1c[nH]c2ccccc12`, for which the IC50 was 102 µM.

Turning to `O=C(CCCC[C@@H]1SC[C@@H]2NC(=O)N[C@@H]21)NCc1cn(-c2ccccc2)nc1-c1ccccc1`, the IC50 is 76.1 µM.

`COCC(=O)Nc1c(C(=O)OC)n(CCC(C)C)c2ncc(N[C@@H](C)C(C)(C)O)cc12`: the IC50 was 38.4 µM. The result for `CC(=O)C1=C(O)[C@@H]2[C@H]3c4c[nH]c5cccc(c45)C[C@H]3C(C)(C)N2C1=O` [CYCLOPIAZONIC ACID] reads 94.5 µM; that for `CCC[C@H](C)NC(=O)CSc1nc2cc(S(=O)(=O)Nc3ccccc3OC)ccc2o1`, 109 µM; that for `CCCCC(=O)Nc1cccc(C(=O)NCCCNc2cccnc2)c1`, 96.9 µM. The result for `NS(=O)(=O)[C@H]1CC=C(CNC(=O)CCCc2c[nH]c3ccccc23)S1` reads 100 µM.

The record behind these values is ChEMBL document CHEMBL4610027, “Identification of Mycobacterium tuberculosis CtpF as a target for designing new antituberculous compounds” (Bioorg Med Chem, 2020).
